Data published in article PMC2790015 (Journal of molecular biology, 2009).

Tests used:
DNA alone = experiment: DNA hybridization controls for the AraC experiments; format: binding; conditions: compared with no sugar; sugars 10 mM; data not shown
adjacent DNA half-sites = conditions: addition of arabinose; cited from earlier work
[1] = test system: K4 and E4 heterodimerizing coiled-coil peptides; experiment: DNA-assisted binding assay; conditions: GC to AT substituted DNA versus original DNA sequence
[2] = target: T1, K4 coiled-coil peptide (modified: N-terminal Met, Val to Trp, C-terminal Ala), unconjugated; experiment: ITC
T1 peptide: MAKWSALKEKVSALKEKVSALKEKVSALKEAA

O[C@@H]1[C@@H](O)[C@@H](O)CO[C@H]1O [arabinose]
effect of sugar on DNA hybridization (DNA alone): DNA hybridization is not affected
increase in amount of AraC capable of binding to adjacent DNA half-sites (adjacent DNA half-sites): 40 -fold

OC[C@H]1OC(O)[C@H](O)[C@@H](O)[C@@H]1O (some centres unmarked) [glucose]
effect of sugar on DNA hybridization (DNA alone): DNA hybridization is not affected

GC to AT substituted DNA sequences: K4 and E4 conjugated to GC to AT substituted 5’-TTTTTTGGGTTATAC-3’ and 5’-TTTTTTGTATAAC-3’ (K4 and E4 peptides conjugated)
decrease in the interaction between the conjugates [1]: 3 -fold

MAEWSALEKEVSALEKEVSALEKEVSALEKAA [E4 coiled-coil peptide (modified: N-terminal Met, Val to Trp, C-terminal Ala), unconjugated]
Kd [2]: ~1 µM
